The values below come from PubChem BioAssay (NCI).

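Five compound concentrations were applied to cells in 96-well plates for 48 hours; endpoints were derived by simple linear interpolation of the resulting dose-response curve. Abbreviation: GI50, concentration required for 50% inhibition of growth. TGI marks complete inhibition of growth.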 Some results are limits rather than exact numbers.

Test systems include K-562 leukemia; LOX IMVI melanoma; SK-OV-3 ovarian; M14 melanoma; EKVX NSCLC; HCC-2998 colon; OVCAR-4 ovarian; SF-268 CNS; RXF 393 renal; SR leukemia.
What all share (assay): NCI anticancer screen, dose series, 48 h

For the molecule `O=C(CCC(=O)OCC1OC(O)(CC2OC(CO)C(O)C(O)C2O)C(O)C1O)OCc1ccccc1` (configuration not stated), the TGI with K-562 leukemia, in the experiment on LOX IMVI melanoma, in the experiment on SK-OV-3 ovarian, in the experiment with M14 melanoma, in the experiment on EKVX NSCLC and with HCC-2998 colon was more than 100 µM throughout. Besides, the TGI in the experiment on OVCAR-4 ovarian, in the experiment with SF-268 CNS and in the experiment on RXF 393 renal was more than 100 µM in each case.
In the case of `Cn1c(=O)c2[nH]c(-n3nc(-c4ccccc4)cc3N)nc2n(C)c1=O`, the TGI with K-562 leukemia was more than 100 µM; with SK-OV-3 ovarian it was 20.4 µM; with M14 melanoma, 50 µM; in the experiment with EKVX NSCLC it was more than 100 µM; in the experiment with HCC-2998 colon, more than 100 µM; in the experiment on OVCAR-4 ovarian, 93.5 µM. Moreover, the TGI with SF-268 CNS, in the experiment with RXF 393 renal and in the experiment with SR leukemia was more than 100 µM throughout.
As for `COc1ccc(/C=C/C(c2cc(OC)c(OC)c(OC)c2)n2cncn2)cc1O` (configuration not stated), the GI50 with K-562 leukemia is 0.032 µM; in the experiment on LOX IMVI melanoma, 0.0511 µM; in the experiment on M14 melanoma, 0.0287 µM; in the experiment on EKVX NSCLC it was 6.07 µM; in the experiment on HCC-2998 colon, 3 µM; in the experiment on OVCAR-4 ovarian it was 7.05 µM. Besides, the GI50 with SF-268 CNS was 0.059 µM; in the experiment with SR leukemia, 0.0248 µM. In addition, the TGI in the experiment on K-562 leukemia is more than 100 µM; with LOX IMVI melanoma it was more than 100 µM; in the experiment with M14 melanoma it was 5.12 µM; with EKVX NSCLC, more than 100 µM; in the experiment on HCC-2998 colon, more than 100 µM; in the experiment on OVCAR-4 ovarian, more than 100 µM. Besides, the TGI in the experiment with SF-268 CNS and with SR leukemia was more than 100 µM in each case.
Turning to `O=C1CC(Cl)c2c(Cl)sc(Cl)c21` (configuration not stated), the TGI was more than 100 µM in the experiment on K-562 leukemia; 3.15 µM in the experiment on LOX IMVI melanoma; 33.3 µM with SK-OV-3 ovarian; 3.94 µM in the experiment on M14 melanoma; 16.4 µM in the experiment on EKVX NSCLC; 5.54 µM in the experiment with HCC-2998 colon. Also, the TGI in the experiment on OVCAR-4 ovarian was determined as 10.3 µM; in the experiment with SF-268 CNS it was 5.51 µM.
Consider `COc1ccc(N2C(=O)C3c4[nH]c5ccccc5c4C4CCC(C(C)(C)C)CC4C3C2=O)cc1OC` (configuration not stated), for which the TGI in the experiment on K-562 leukemia was 84.5 µM; in the experiment with SK-OV-3 ovarian it was 45 µM; in the experiment with M14 melanoma, more than 100 µM; in the experiment on EKVX NSCLC it was more than 100 µM; in the experiment with HCC-2998 colon it was more than 100 µM; in the experiment with OVCAR-4 ovarian, 52.2 µM. In addition, the TGI in the experiment with SF-268 CNS turned out to be 38.3 µM; with RXF 393 renal, 29.7 µM; with SR leukemia it was 39.9 µM.
For `CCCN(CCC)c1c([N+](=O)[O-])cc(C(=O)N(C)C)cc1[N+](=O)[O-]`, the TGI with K-562 leukemia was more than 100 µM; in the experiment with SK-OV-3 ovarian, more than 100 µM; in the experiment with M14 melanoma it was more than 100 µM; in the experiment with EKVX NSCLC it was more than 100 µM; in the experiment on HCC-2998 colon, more than 100 µM; in the experiment on OVCAR-4 ovarian, 29.4 µM. Further, the TGI in the experiment with SF-268 CNS was more than 100 µM.
For the molecule `COc1cc(C2C3=C(N=C4SC(C(C)=O)=C(C)N42)c2ccccc2CC3)cc(OC)c1OC` (configuration not stated), the TGI was 85.2 µM in the experiment on K-562 leukemia; more than 100 µM with LOX IMVI melanoma; more than 100 µM in the experiment with SK-OV-3 ovarian; more than 100 µM with M14 melanoma; more than 100 µM in the experiment on EKVX NSCLC; more than 100 µM in the experiment on HCC-2998 colon. Moreover, the TGI with OVCAR-4 ovarian, with SF-268 CNS and in the experiment with RXF 393 renal was more than 100 µM each time.
As for `NC(=S)N/N=C(\C(=O)Nc1ccc(Cl)c(Cl)c1)C1=NN(c2ccccc2)C(c2cccc([N+](=O)[O-])c2)CC1=O` (configuration not stated), the TGI was 65.5 µM with K-562 leukemia; 30.8 µM in the experiment with LOX IMVI melanoma; more than 100 µM in the experiment on SK-OV-3 ovarian; more than 100 µM in the experiment with M14 melanoma; more than 100 µM with EKVX NSCLC; more than 100 µM in the experiment with HCC-2998 colon. Moreover, the figures for the TGI in the experiment on OVCAR-4 ovarian, in the experiment on SF-268 CNS and in the experiment with SR leukemia were 63 µM, more than 100 µM and more than 100 µM, respectively.
For `Cc1oc2c(C)c3oc(=O)cc(C)c3cc2c1CN`, the TGI was more than 100 µM with K-562 leukemia; 41.9 µM in the experiment on LOX IMVI melanoma; 79.2 µM in the experiment with SK-OV-3 ovarian; more than 100 µM in the experiment on M14 melanoma; more than 100 µM with EKVX NSCLC; 64.7 µM with HCC-2998 colon. The TGI in the experiment on OVCAR-4 ovarian, in the experiment on SF-268 CNS and in the experiment on RXF 393 renal was more than 100 µM each time.
On to `Oc1ccccc1C=Nc1ccccc1N=Cc1ccccc1O`, for which the TGI with K-562 leukemia, with LOX IMVI melanoma, in the experiment on SK-OV-3 ovarian, in the experiment with M14 melanoma, with EKVX NSCLC and in the experiment with HCC-2998 colon was more than 100 µM in each case. Further, the TGI in the experiment on SF-268 CNS and with SR leukemia was more than 100 µM throughout.
Turning to `Cc1nn(-c2ccccc2)c2c1N=C(C(=O)O)CC(c1ccccc1)=N2`, the TGI with K-562 leukemia, with LOX IMVI melanoma, in the experiment with SK-OV-3 ovarian, in the experiment on M14 melanoma, with HCC-2998 colon and in the experiment with OVCAR-4 ovarian was more than 10 µM each time. The TGI in the experiment with SF-268 CNS and in the experiment on SR leukemia was more than 10 µM throughout.
`O=C(NC(CO)CO)c1ccc2cc(C(=O)N3CC(CCl)c4ccc([N+](=O)[O-])cc43)[nH]c2c1` (configuration not stated): the TGI in the experiment on K-562 leukemia, in the experiment with LOX IMVI melanoma, in the experiment with SK-OV-3 ovarian, in the experiment on M14 melanoma, with EKVX NSCLC and in the experiment with HCC-2998 colon was more than 100 µM in each case. The TGI in the experiment on OVCAR-4 ovarian, with SF-268 CNS and in the experiment on RXF 393 renal was more than 100 µM each time.
As for `CCOC(=O)/C=C1/Nc2cc(F)c(F)cc2NC1=O`, the TGI in the experiment with K-562 leukemia, with LOX IMVI melanoma, in the experiment with SK-OV-3 ovarian, with M14 melanoma, in the experiment on EKVX NSCLC and in the experiment with HCC-2998 colon was more than 100 µM each time. For the same molecule, the TGI in the experiment with OVCAR-4 ovarian, in the experiment on SF-268 CNS and in the experiment on RXF 393 renal was more than 100 µM in each case.
As to `CC1=CC(=O)/C(=C/N2CCNC2=S)C(=O)O1`, the TGI with K-562 leukemia, with LOX IMVI melanoma, in the experiment with SK-OV-3 ovarian, in the experiment on M14 melanoma, with EKVX NSCLC and in the experiment with HCC-2998 colon was more than 100 µM each time. The TGI in the experiment with OVCAR-4 ovarian, in the experiment on SF-268 CNS and in the experiment on RXF 393 renal was more than 100 µM each time.
Consider `CCCCNCC(O)c1cc(-c2ccc(C(F)(F)F)cc2)nc(-c2ccc(C(F)(F)F)cc2)c1` (configuration not stated), for which the GI50 is 2.11 µM in the experiment with OVCAR-4 ovarian and 1.97 µM in the experiment on SF-268 CNS. In addition, the TGI turned out to be 3.93 µM in the experiment on OVCAR-4 ovarian and 3.89 µM in the experiment on SF-268 CNS.
